Source: article PMC10205807, “Cross-species comparison in nonclinical pharmacokinetics of lenvatinib by a simple HPLC with ultraviolet detection” (Scientific Reports, 2023)

How the values were obtained:
[1] = PK study in rats (intravenous and oral); assay type: in vivo; settings: for Tmax: median (range)
Experimental: Sprague–Dawley male rats were purchased from Charles River Japan, Inc., and were used for the PK study after 8 days of an acclimatization period. Rats were 8 weeks old when lenvatinib was dosed and the body weight range was 0.28–0.31 (kg). Rats were fasted a day before the PK study and feeding was resumed 4 h postdose. Dosing solution of lenvatinib used in the rat PK study was the same as that in the mice PK study, and the dose levels were 3 mg/kg for the intravenous administration via femoral vein, and 3, 10, and 30 mg/kg for the oral administration by gastric gavage (n = 4/dose). Approximately 0.25 mL of blood samples were obtained from the jugular vein using heparinized syringes at predose, and at 5, 15 and 30 min, and 1, 2, 4, 6, 8, 12 and 24 h postdose. Plasma sample preparation and sample storage were the same as those in the mice PK study.
PK parameters of lenvatinib were estimated by model independent analysis using a WinNonlin program (Version 4.1, Pharsight Corporation, Mountain View, CA). The time to reach the maximum plasma concentration (Tmax) and the maximum plasma concentration (Cmax) values were obtained directly from the plasma concentration data. Terminal half-life (T1/2) was calculated by ln2/ke, where ke is the slope of the regression line that fits the portion of the terminal phase (at least three time points) in the log-linear concentration–time curve. AUC0–t and AUMC0–t, the area under the concentration–time curves and the area under the first moment curve, from time = zero to time = t, respectively, were calculated using the lenvatinib concentrations in plasma by the linear/log trapezoidal method. AUC0–inf was calculated by AUC0–t + Ct/ke, and AUMC0–inf was AUMC0–t + Ct × t/ke + Ct/(ke)^2, where Ct is the last measurable concentration at time = t. The plasma concentration at time zero for the intravenous dose was extrapolated, while zero was used for the oral doses. Mean residence time (MRT), total plasma clearance (CLtot) and the volume of distribution at steady state (Vdss) were calculated by AUMC0–inf/AUC0–inf, Dose/AUC0–inf and CLtot × MRT, respectively. Oral bioavailability (F) was estimated by comparing dose-normalized AUC0–inf after oral (AUC0–inf.po) and intravenous (AUC0–inf.iv) administration as follows: F (%) = (AUC0–inf.po/AUC0–inf.iv) × 100.

[2] = Stability of lenvatinib in rat plasma and processed samples; assay type: physicochemical, rats; settings: for Processed sample stability, mean percentage bias from the theoretical values: processed rat plasma samples, 4 °C, 7 days
Experimental: Calibration samples and QC samples for the reproducibility assessment were prepared by spiking 0.05 mL of the working standard solutions to blank plasma (0.05 mL), and QC samples for the stability assessment were prepared by fortifying 0.05 mL of the solution to 1.5 mL of bank plasma. Lenvatinib concentrations in plasma were 0.005, 0.01, 0.03, 0.1, 0.3, 1, 3, 10, 30, and 100 μg/mL for the calibration samples, and were 0.005, 0.01, 1, and 100 μg/mL for the QC samples for reproducibility assessment. Lenvatinib concentrations of QC samples for the stability assessment were 0.01, 1, and 80 μg/mL.
The developed method for the determination of lenvatinib concentrations in plasma was validated and the following validation parameters including linearity, selectivity, intra- and inter-batch reproducibility, extraction recovery, and stability were evaluated in accordance with the bioanalytical guidelines by United States Food and Drug Administration (US-FDA)[7]. The peak height ratios of lenvatinib to the IS of calibration samples were plotted against the corresponding nominal concentrations of lenvatinib. The calibration curve was prepared by the least square method with 1/(concentration)^2 as the weighting factor. In the linearity assessment, accuracy of each calibration sample was determined to ensure that relative error (RE) at each concentration was within ± 15% (within ± 20% at the LLOQ). […] Intra-batch accuracy and precision were evaluated using QC samples at the four concentrations, LLOQ, low QC (LQC), mid QC (MQC), and ULOQ. […] Inter-batch accuracy and precision were evaluated by testing a single sample at each concentration across five batches (n = 5 in total). […] Extraction recoveries of lenvatinib and the IS from plasma samples of the four species were evaluated. The recoveries of lenvatinib at the low, mid, and high QC levels (triplicates per concentration), and that of the IS (0.5 μg/mL) were determined. […] Stability of lenvatinib in plasma and processed samples was assessed at the low and high QC levels. Lenvatinib concentrations in samples after storage were compared to the theoretical concentrations and RE values were calculated. […] Freeze–thaw stability in plasma was evaluated up to three freeze–thaw cycles and frozen stability in plasma was evaluated at − 15 °C or below for 4 weeks (mice, rats, and dogs) or 6 weeks (monkeys). Stability in processed samples was assessed at 4 °C for 7 days. Stability of lenvatinib in the standard solutions was evaluated for the stock (100 μg/mL) and the working solution (5 ng/mL). The stability of the IS solution (0.5 μg/mL) was also assessed. […]

[3] = test system: plasma protein; test: in vitro plasma protein binding, monkeys; assay type: in vitro ADME
[4] = male, Sprague-Dawley, rat, plasma, intravenous 3 mg/kg
[5] = male, Sprague-Dawley, rat, plasma, oral 3 mg/kg
[6] = male, Sprague-Dawley, rat, plasma, oral 10 mg/kg
[7] = male, Sprague-Dawley, rat, plasma, oral 30 mg/kg

CLint (hepatic intrinsic clearance) ([1]; estimated from oral PK, Fa and Fg assumed unity, BW 0.2 kg): 1440 mL/h
AUC(0-inf) [1, 4]: 30100 ± 1330 ng·h/mL
MRT [1, 4]: 3.93 ± 0.19 h
C0 ([1]; male, Sprague-Dawley, rat, plasma, intravenous 3 mg/kg, extrapolated): 16000 ± 416 ng/mL
clearance ([1]; male, Sprague-Dawley, rat, plasma, intravenous 3 mg/kg, read-out: CLtot (converted)): 1.67 mL/min/kg
Vd ([1]; male, Sprague-Dawley, rat, plasma, intravenous 3 mg/kg, read-out: Vdss): 0.392 ± 0.0099 L/kg
half-life ([1]; male, Sprague-Dawley, rat, plasma, iv, 3 mg/kg, intravenous 3 mg/kg): 3.65 ± 0.09 h
AUC(0-inf) [1, 5]: 20700 ± 3120 ng·h/mL
Cmax [1, 5]: 6170 ± 1370 ng/mL
MRT [1, 5]: 4.46 ± 0.16 h
bioavailability ([1]; male, Sprague-Dawley, rat, plasma, oral 3 mg/kg vs intravenous 3 mg/kg, read-out: F (oral bioavailability)): 68.7%
Tmax [1, 5]: 0.5 h
AUC(0-inf) [1, 6]: 78300 ± 6580 ng·h/mL
Cmax [1, 6]: 16600 ± 1240 ng/mL
MRT [1, 6]: 6.31 ± 0.53 h
Tmax [1, 6]: 0.5 h
AUC(0-inf) [1, 7]: 146000 ± 18500 ng·h/mL
Cmax [1, 7]: 23200 ± 4770 ng/mL
MRT [1, 7]: 6.86 ± 1.02 h
Tmax [1, 7]: 1 h
half-life ([1]; male, Sprague-Dawley, rat, plasma, po, 3 mg/kg, oral 3 mg/kg): 3.61 ± 0.21 h
half-life ([1]; male, Sprague-Dawley, rat, plasma, po, 10 mg/kg, oral 10 mg/kg): 5.27 ± 0.33 h
half-life ([1]; male, Sprague-Dawley, rat, plasma, po, 30 mg/kg, across 3, 10, and 30 mg/kg): 3.61 to 5.27 h
half-life ([1]; male, Sprague-Dawley, rat, plasma, po, 30 mg/kg, oral 30 mg/kg): 4.95 ± 0.77 h
Processed sample stability, mean percentage bias from the theoretical values ([2]; HQC 80 μg/mL): 0.3%
Processed sample stability, mean percentage bias from the theoretical values ([2]; MQC 1 μg/mL): 0.2%
Freeze/thaw stability, mean percentage bias from the theoretical values ([2]; rat plasma, 3 cycles, MQC 1 μg/mL): 3.6%
Frozen stability, mean percentage bias from the theoretical values ([2]; rat plasma, below − 15 °C, 4 weeks, LQC 0.01 μg/mL): 1.0%
fraction unbound at 0.3 μg/mL ([3]; monkey plasma, 0.3 μg/mL): 0.039
fraction unbound ([3]; monkey, plasma, monkeys, 0.3–30 μg/mL, read-out: average fp (unbound fraction in plasma)): 0.0394
SMILES: COc1cc2nccc(Oc3ccc(NC(=O)NC4CC4)c(Cl)c3)c2cc1C(N)=O [lenvatinib, Lenvatinib]
